Measured values: patent US12098145B2 (Libra Therapeutics, Inc., priority 2022, dated 2024)
Where two headings read alike, the source gives them in different places.

Assays:
TFEB = TFEB translocation assay (TFEB reporter in U2OS cells, imaging); type: cell-based; conditions: Homo sapiens; U2OS cell line with TFEB reporter, 2 hours incubation, nucleus to cytoplasm ratio, normalized to Torin-1; read-out: TFEB Translocation pEC50 (converted)
Method in brief: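 Activity expresses the mean nuclear-to-cytosolic reporter ratio scaled between DMSO (0%) and Torin-1 (100%) controls. Read-out came from high-content imaging of fixed, Hoechst-counterstained U2OS cells carrying mRFP-tagged TFEB after 2 h compound exposure at 37 °C in Opti-MEM with 0.015% Tween 80 and 0.5% DMSO.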

TRPML1 = molecular target: T1, TRPML1 (Homo sapiens, UniProt Q9GZU1); experiment: Cellular TRPML1 assay (FLIPR, GCaMP6f calcium read-out); type: cell-based
T1 construct: expressed in transfected cells; host or cells: HEK T-REx cells stably expressing GCaMP6f and TRPML1
T1 sequence (Q9GZU1 whole entry): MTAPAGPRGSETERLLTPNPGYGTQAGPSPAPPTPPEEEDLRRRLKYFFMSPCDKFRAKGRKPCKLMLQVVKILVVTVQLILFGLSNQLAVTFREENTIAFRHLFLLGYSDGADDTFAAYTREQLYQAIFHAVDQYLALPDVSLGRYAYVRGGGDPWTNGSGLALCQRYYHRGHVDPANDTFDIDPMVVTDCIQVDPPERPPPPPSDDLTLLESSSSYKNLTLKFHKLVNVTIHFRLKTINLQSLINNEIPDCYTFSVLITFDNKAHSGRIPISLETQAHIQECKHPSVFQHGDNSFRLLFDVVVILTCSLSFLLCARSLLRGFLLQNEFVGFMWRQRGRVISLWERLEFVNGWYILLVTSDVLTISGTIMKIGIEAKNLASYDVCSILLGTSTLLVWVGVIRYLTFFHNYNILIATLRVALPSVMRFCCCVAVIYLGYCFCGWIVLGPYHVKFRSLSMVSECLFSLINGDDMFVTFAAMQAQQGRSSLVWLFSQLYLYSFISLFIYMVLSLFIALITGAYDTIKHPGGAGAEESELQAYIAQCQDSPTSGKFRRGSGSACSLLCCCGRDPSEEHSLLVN
Method in brief: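 Read-out is GCaMP6f fluorescence over 300 s after compound addition in Ca2+-free Tyrode's buffer, final DMSO 0.5%, on FLIPR Tetra. Cells are HEK T-REx stably co-expressing the indicator and TRPML1, plated 24 h earlier in Optimem + 0.5% FBS and pre-incubated ~10 min at room temperature.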

[1] = HEKT-REx/GCaMP6f/TRPML1 cells, FLIPR TETRA, kinetic response over 300 seconds, read-out: TRPML1 FLIPR pEC50 (converted)

Row | Structure (SMILES) | EC50 (TFEB) [nM] | EC50 (TRPML1; [1]) [nM] | EC50 (TRPML1) [nM]
1 | COC1(C)CN(c2nc(C(=O)Nc3cc(C)c(O[C@@H]4C[C@@H]5C[C@@H]5C4)c(F)c3)c(CC(F)(F)F)o2)C1 [Example 164, N-(4-(cis-bicyclo[3.1.0]hexan-3-yloxy)-3-fluoro-5-methylphenyl)-2-(3-methoxy-3-methylazetidin-1-yl)-5-(2,2,2-trifluoroethyl)oxazole-4-carboxamide] | 10 to 1000 | 10 to 1000 | –
2 | CCC1(COC)CN(c2nc(C(=O)Nc3cc(F)c(O[C@@H]4C[C@@H]5C[C@@H]5C4)c(F)c3)c(CC(F)(F)F)o2)C1 [Example 165, N-(4-(cis-bicyclo[3.1.0]hexan-3-yloxy)-3,5-difluorophenyl)-2-(3-ethyl-3-(methoxymethyl)azetidin-1-yl)-5-(2,2,2-trifluoroethyl)oxazole-4-carboxamide] | 10 to 1000 | 10 to 1000 | –
3 | O=C(Nc1cc(F)c(O[C@@H]2C[C@@H]3C[C@@H]3C2)c(F)c1)c1nc(N2CCC23CCC3)oc1CC(F)(F)F [Example 170, N-(4-(cis-bicyclo[3.1.0]hexan-3-yloxy)-3,5-difluorophenyl)-2-(1-azaspiro[3.3]heptan-1-yl)-5-(2,2,2-trifluoroethyl)oxazole-4-carboxamide] | 10 to 1000 | 10 to 1000 | –
4 | O=C(Nc1ccc(O[C@@H]2C[C@@H]3C[C@@H]3C2)c(F)c1)c1nc(N2CC3(CCOCC3)C2)oc1CC(F)(F)F [Example 171, N-(4-(cis-bicyclo[3.1.0]hexan-3-yloxy)-3-fluorophenyl)-2-(7-oxa-2-azaspiro[3.5]nonan-2-yl)-5-(2,2,2-trifluoroethyl)oxazole-4-carboxamide] | 10 to 1000 | 10 to 1000 | –
5 | CC1(C)CCCN1c1nc(C(=O)Nc2cc(F)c(O[C@@H]3C[C@@H]4C[C@@H]4C3)c(F)c2)c(CC(F)(F)F)o1 [Example 172, N-(4-(cis-bicyclo[3.1.0]hexan-3-yloxy)-3,5-difluorophenyl)-2-(2,2-dimethylpyrrolidin-1-yl)-5-(2,2,2-trifluoroethyl)oxazole-4-carboxamide] | 10 to 1000 | 10 to 1000 | –
6 | O=C(Nc1cc(F)c(O[C@@H]2C[C@@H]3C[C@@H]3C2)c(F)c1)c1nc(N2CC3(CCCO3)C2)oc1CC(F)(F)F [Example 173, N-(4-(cis-bicyclo[3.1.0]hexan-3-yloxy)-3,5-difluorophenyl)-2-(5-oxa-2-azaspiro[3.4]octan-2-yl)-5-(2,2,2-trifluoroethyl)oxazole-4-carboxamide] | 10 to 1000 | 10 to 1000 | –
7 | O=C(Nc1cc(F)c(O[C@@H]2C[C@@H]3C[C@@H]3C2)c(F)c1)c1nc(N2CCCCCC2)oc1CC(F)(F)F [Example 174, 2-(azepan-1-yl)-N-(4-(cis-bicyclo[3.1.0]hexan-3-yloxy)-3,5-difluorophenyl)-5-(2,2,2-trifluoroethyl)oxazole-4-carboxamide] | 10 to 1000 | 10 to 1000 | –
8 | O=C(Nc1cc(F)c(OC2CC3C[C@@H]3C2)c(F)c1)c1nc(N2CC3CCC3C2)oc1CC(F)(F)F (stereo partly drawn) [Example 177, N-(4-(cis-bicyclo[3.1.0]hexan-3-yloxy)-3,5-difluorophenyl)-2-(3-azabicyclo[3.2.0]heptan-3-yl)-5-(2,2,2-trifluoroethyl)oxazole-4-carboxamide] | 10 to 1000 | 10 to 1000 | –
9 | COC1(C)CN(c2nc(C(=O)Nc3cc(F)c(O[C@@H]4C[C@@H]5C[C@@H]5C4)c(F)c3)c(CC(F)(F)F)o2)C1 [Example 178, N-(4-(cis-bicyclo[3.1.0]hexan-3-yloxy)-3,5-difluorophenyl)-2-(3-methoxy-3-methylazetidin-1-yl)-5-(2,2,2-trifluoroethyl)oxazole-4-carboxamide] | 10 to 1000 | 10 to 1000 | –
10 | O=C(Nc1cc(F)c(OC2CC3C[C@H]3C2)c(F)c1)c1nc(N2C[C@H]3CCO[C@H]3C2)oc1CC(F)(F)F (stereo partly drawn) [Example 179, N-(4-(cis-bicyclo[3.1.0]hexan-3-yloxy)-3,5-difluorophenyl)-2-((3aR,6aR)-hexahydro-5H-furo[2,3-c]pyrrol-5-yl)-5-(2,2,2-trifluoroethyl)oxazole-4-carboxamide] | 10 to 1000 | 10 to 1000 | –
11 | O=C(Nc1cc(F)c(OC2CC3C[C@H]3C2)c(F)c1)c1nc(N2C[C@@H]3CCO[C@@H]3C2)oc1CC(F)(F)F (stereo partly drawn) [Example 180, N-(4-(cis-bicyclo[3.1.0]hexan-3-yloxy)-3,5-difluorophenyl)-2-((3aS,6aS)-hexahydro-5H-furo[2,3-c]pyrrol-5-yl)-5-(2,2,2-trifluoroethyl)oxazole-4-carboxamide] | 10 to 1000 | 10 to 1000 | –
12 | CCC1(CC)CN(c2nc(C(=O)Nc3cc(F)c(O[C@@H]4C[C@@H]5C[C@@H]5C4)c(F)c3)c(CC(F)(F)F)o2)C1 [Example 183, N-(4-(cis-bicyclo[3.1.0]hexan-3-yloxy)-3,5-difluorophenyl)-2-(3,3-diethylazetidin-1-yl)-5-(2,2,2-trifluoroethyl)oxazole-4-carboxamide] | 10 to 1000 | 10 to 1000 | –
13 | O=C(Nc1cc(F)c(OC2CC3C[C@@H]3C2)c(F)c1)c1nc(N2CCC3CCCC32)oc1CC(F)(F)F (stereo partly drawn) [Example 185, N-(4-(cis-bicyclo[3.1.0]hexan-3-yloxy)-3,5-difluorophenyl)-2-(hexahydrocyclopenta[b]pyrrol-1(2H)-yl)-5-(2,2,2-trifluoroethyl)oxazole-4-carboxamide] | 10 to 1000 | 10 to 1000 | –
14 | O=C(Nc1cc(F)c(OC2CC3C[C@@H]3C2)c(F)c1)c1nc(N2CC3COCC3C2)oc1CC(F)(F)F (stereo partly drawn) [Example 186, N-(4-(cis-bicyclo[3.1.0]hexan-3-yloxy)-3,5-difluorophenyl)-2-(tetrahydro-1H-furo[3,4-c]pyrrol-5(3H)-yl)-5-(2,2,2-trifluoroethyl)oxazole-4-carboxamide] | 10 to 1000 | 10 to 1000 | –
15 | Cc1cc(NC(=O)c2nc(N3CCCC3)oc2CC(F)(F)F)cc(F)c1NC1CC2CC(C2)C1 (stereo not drawn) [Example 193, N-(4-(bicyclo[3.1.1]heptan-3-ylamino)-3-fluoro-5-methylphenyl)-2-(pyrrolidin-1-yl)-5-(2,2,2-trifluoroethyl)oxazole-4-carboxamide] | 10 to 1000 | 10 to 1000 | –
16 | COC1(C)CN(c2nc(C(=O)Nc3cc(C)c(NC4C5CCCC4CC5)c(F)c3)c(CC(F)(F)F)o2)C1 (stereo not drawn) [Example 195, N-(4-(bicyclo[3.2.1]octan-8-ylamino)-3-fluoro-5-methylphenyl)-2-(3-methoxy-3-methylazetidin-1-yl)-5-(2,2,2-trifluoroethyl)oxazole-4-carboxamide] | 10 to 1000 | 10 to 1000 | –
17 | COC1(C)CN(c2nc(C(=O)Nc3cc(F)c(N4C5CCCC4CC5)c(C#N)c3)c(CC(F)(F)F)o2)C1 [Example 196, N-(4-(8-azabicyclo[3.2.1]octan-8-yl)-3-cyano-5-fluorophenyl)-2-(3-methoxy-3-methylazetidin-1-yl)-5-(2,2,2-trifluoroethyl)oxazole-4-carboxamide] | 10 to 1000 | – | 10 to 1000
18 | COC1(C)CN(c2nc(C(=O)Nc3ccc(N4C5CCCC4CC5)c(C#N)c3)c(CC(F)(F)F)o2)C1 [Example 197, N-(4-(8-azabicyclo[3.2.1]octan-8-yl)-3-cyanophenyl)-2-(3-methoxy-3-methylazetidin-1-yl)-5-(2,2,2-trifluoroethyl)oxazole-4-carboxamide] | 10 to 1000 | – | 10 to 1000
19 | CC1(C)CN(c2nc(C(=O)Nc3cc(F)c(N4C5CCCC4CC5)c(F)c3)c(CC(F)(F)F)o2)C1 [Example 200, N-(4-(8-azabicyclo[3.2.1]octan-8-yl)-3,5-difluorophenyl)-2-(3,3-dimethylazetidin-1-yl)-5-(2,2,2-trifluoroethyl)oxazole-4-carboxamide] | 10 to 1000 | – | 10 to 1000
20 | O=C(Nc1cc(F)c(N2C3CCCC2CC3)c(F)c1)c1nc(N2CC3COCC3C2)oc1CC(F)(F)F (stereo not drawn) [Example 201, N-(4-(8-azabicyclo[3.2.1]octan-8-yl)-3,5-difluorophenyl)-2-(tetrahydro-1H-furo[3,4-c]pyrrol-5(3H)-yl)-5-(2,2,2-trifluoroethyl)oxazole-4-carboxamide] | 10 to 1000 | – | 10 to 1000
21 | O=C(Nc1ccc(N2CC3CC(C3)C2)c(F)c1)c1nc(N2CCC3(COC3)C2)oc1CC(F)(F)F [Example 202, N-(4-(3-azabicyclo[3.1.1]heptan-3-yl)-3-fluorophenyl)-2-(2-oxa-6-azaspiro[3.4]octan-6-yl)-5-(2,2,2-trifluoroethyl)oxazole-4-carboxamide] | 10 to 1000 | – | 10 to 1000
22 | CCC1(OC)CN(c2nc(C(=O)Nc3cc(F)c(N4CC5CC(C5)C4)c(F)c3)c(CC(F)(F)F)o2)C1 [Example 203, N-(4-(3-azabicyclo[3.1.1]heptan-3-yl)-3,5-difluorophenyl)-2-(3-ethyl-3-methoxyazetidin-1-yl)-5-(2,2,2-trifluoroethyl)oxazole-4-carboxamide] | 10 to 1000 | – | 10 to 1000
23 | CCC1(OC)CN(c2nc(C(=O)Nc3cc(F)c(N4C5CCCC4CC5)c(F)c3)c(CC(F)(F)F)o2)C1 [Example 206, N-(4-(8-azabicyclo[3.2.1]octan-8-yl)-3,5-difluorophenyl)-2-(3-ethyl-3-methoxyazetidin-1-yl)-5-(2,2,2-trifluoroethyl)oxazole-4-carboxamide] | 10 to 1000 | – | 10 to 1000
24 | COC1(C)CN(c2nc(C(=O)Nc3cc(F)c(N4C5CCCC4CC5)c(F)c3)c(CC(F)(F)F)o2)C1 [Example 207, N-(4-(8-azabicyclo[3.2.1]octan-8-yl)-3,5-difluorophenyl)-2-(3-methoxy-3-methylazetidin-1-yl)-5-(2,2,2-trifluoroethyl)oxazole-4-carboxamide] | 10 to 1000 | – | 10 to 1000
